The text below walks through data of patent US10550144B2, “6-aryl-9-glycosylpurines and use thereof” (UNIVERZITA PALACKEHO V OLOMOUCI, priority 2014, dated 2020).

The subject of assay [1] is Triticum aestivum cv. Hereward detached leaf segments. Put plainly: Senescence bioassay on detached wheat leaf segments (chlorophyll retention). As to conditions: for maximum effective concentration: 96 h incubation in the dark at 25° C., tested 10^−8 M to 10^−4 M. Type of assay: in vivo. The method, then:
Seeds of winter wheat, Triticum aestivum cv. Hereward, were washed under running water for 24 hours and then sown on vermiculite soaked with Knop's solution. They were placed in the growth chamber at 25° C. with a 16/8 h light period at 50 μmol·m^−2·s^−1. After 7 days, the first leaf was fully developed and the second leaf had started to grow. A tip section of the first leaf, approximately 35 mm long, was removed from 5 seedlings and trimmed slightly to a combined weight of 100 mg. The basal ends of the five leaf tips were placed in the wells of a microtiter polystyrene plate containing 150 μL of the tested derivative solution each. The entire plate was inserted into a plastic box lined with paper tissues soaked in distilled water to prevent leaf sections from drying out. After 96 h incubation in the dark at 25° C., the leaves were removed and chlorophyll extracted by heating at 80° C. for 10 min in 5 mL of 80% ethanol (v/v). The sample volume was then restored to 5 mL by the addition of 80% ethanol (v/v). The absorbance of the extract was recorded at 665 nm. In addition, chlorophyll extracts from fresh leaves and leaf tips incubated in deionised water were measured. The results are means of five replicates and the entire test was repeated twice. […] The compounds to be tested were dissolved in dimethylsulfoxide (DMSO) and the solution brought up to 10^−3M with distilled water. […] The activity obtained for 10^−4 M of BAP was postulated as 100%.

For assay [2], the system named is Dais cotinifolia shoot-tip explants. Put plainly: Shoot multiplication and shoot-tip necrosis in shoot cultures of Dais cotinifolia. Type of assay: in vivo. Particulars: after 8 weeks of culture. The method, then: Explants were washed thoroughly with 0.1% (v/v) of Tween® 20 for 2 min, and decontaminated with 70% ethanol for 15 sec followed by 0.2% aqueous HgCl2 for 10 min. The explants were rinsed five times with sterile distilled water. […] Each value was presented as the mean±standard error, with three replicates; each replicate consisting of 15 explants per treatment.

Assay [3] deals with Amelanchier alnifolia nodal explants. Put plainly: Micropropagation growth response with BAP, Amelanchier alnifolia. As to conditions: after 35 days in vitro, N = 9.
For assay [4], the system named is Gymnosporia buxifolia shoot-tip explants. Put plainly: Shoot-tip necrosis in in vitro cultures of Gymnosporia buxifolia. Particulars: after 4 weeks of culture.
Assay [5] has as its system Harpagophytum procumbens nodal explants. The experiment in a line: Micropropagation growth response with BAP, Harpagophytum procumbens. As to conditions: after 35 days in vitro, N = 12.
[6] abbreviates: 10 μM BAP alone (Treatment No. 2).

With `OC[C@H]1O[C@@H](n2cnc3c(NCc4ccc(Cl)cc4Cl)ncnc32)[C@H](O)[C@@H]1O` [6-(2,4-dichlorbenzylamino)-9-riboside, reference compound], the “activity (%) [10^−4 mol · l^−1 BAP = 100%]” value in assay [1] (chlorophyll content at the maximum effective concentration, 96 h in the dark) turned out to be 5 ± 1%.
As for `OC[C@H]1O[C@@H](n2cnc3c(NCc4ccccc4Br)ncnc32)[C@@H](O)[C@@H]1O` [6-(2-bromobenzylamino)-9-β-D-arabinofuranosylpurine], the maximum effective concentration in assay [1] was 10^−5 mol · l^−1.
On the same count and under the same terms, for `COc1ccc(CNc2ncnc3c2ncn3[C@@H]2O[C@H](CO)[C@@H](O)[C@@H]2O)cc1OC` [6-(3,4-dimethoxybenzylamino)-9-β-D-arabinofuranosylpurine] the value was 10^−4 mol · l^−1.
Still for that read-out and setting: under `OC[C@H]1O[C@@H](n2cnc3c(NCc4cccc(Br)c4)ncnc32)[C@@H](O)[C@@H]1O` [6-(3-bromobenzylamino)-9-β-D-arabinofuranosylpurine] stands 10^−4 mol · l^−1; under `OC[C@H]1O[C@@H](n2cnc3c(NCc4cccc(Cl)c4)ncnc32)[C@@H](O)[C@@H]1O` [6-(3-chlorobenzylamino)-9-β-D-arabinofuranosylpurine], 10^−4 mol · l^−1.
Same read-out and setting: for `OC[C@H]1O[C@@H](n2cnc3c(NCc4cccc(F)c4)ncnc32)[C@@H](O)[C@@H]1O` [6-(3-fluorobenzylamino)-9-β-D-arabinofuranosylpurine] the value was 10^−4 mol · l^−1; for `OC[C@H]1O[C@@H](n2cnc3c(NCc4cccc(I)c4)ncnc32)[C@@H](O)[C@@H]1O` [6-(3-iodobenzylamino)-9-β-D-arabinofuranosylpurine], 10^−4 mol · l^−1.
`OC[C@H]1O[C@@H](n2cnc3c(NCc4ccc(Br)cc4)ncnc32)[C@@H](O)[C@@H]1O` [6-(4-bromobenzylamino)-9-β-D-arabinofuranosylpurine]: in assay [1], the maximum effective concentration is 10^−4 mol · l^−1.
The same measure, in the same setting: under `OC[C@H]1O[C@@H](n2cnc3c(NCc4ccco4)ncnc32)[C@@H](O)[C@@H]1O` [6-furfurylamino-9-β-D-arabinofuranosylpurine] stands 10^−4 mol · l^−1.
For `c1ccc(CNc2ncnc3nc[nH]c23)cc1` [BA, 6-benzylaminopurine, reference compound], in assay [2] (10 μM in MS medium), the Morphogenesis in vitro entry was “Dark green shoots + SBI”, the “STN [%] (shoot-tip necrosis)” value turned out to be 61.5 ± 1.02a %, the “Shoot length [cm]” value is recorded as 1.52 ± 0.26bc cm and the “Shoots [explant^−1] […]” value stood at 3.4 ± 0.37a explant^−1. Also, in assay [3] (setting [6]), the “Fresh weight (g) mean SE” value is given as 0.319 ± 0.1255 g, the “Shoot length (mm) mean SE” value is listed as 17.22 ± 1.770 mm and the “Shoot no. mean SE” value is 7.7 ± 2.65. For the same molecule, in assay [4] (10 μM in MS medium), the “STN [%] (shoot-tip necrosis)” value amounted to 73.3 ± 0.20a %, the “Shoot length [cm]” value was 1.92 ± 0.09b cm and the “Shoots [explant^−1] […]” value is listed as 1.0 ± 0.0a explant^−1. In addition, in assay [5] (setting [6]), the “Fresh weight (g) mean SE” value is given as 0.3614 ± 0.05563 g, the “Shoot length (mm) mean SE” value worked out at 19.4 ± 1.529 mm and the “Shoot no. mean SE” value came to 1.5 ± 0.167.
In the case of `OC[C@H]1O[C@@H](n2cnc3c(NCc4ccccc4F)ncnc32)[C@@H](O)[C@@H]1O` [Example 2FBAPA, 6-(2-fluorobenzylamino)-9-β-D-arabinofuranosylpurine], the Morphogenesis in vitro result is “Pale green shoots” in assay [2] (5 μM in MS medium), “Pale green shoots” in assay [2] (10 μM in MS medium), “Green shoots” in assay [2] (20 μM in MS medium) and “Green shoots” in assay [2] (30 μM in MS medium). For the same molecule, the “STN [%] (shoot-tip necrosis)” value in assay [2] (5 μM in MS medium) is recorded as 33.3 ± 0.74e %; in assay [2] (10 μM in MS medium), 31.5 ± 1.18ef %; in assay [2] (20 μM in MS medium) it was 27.7 ± 0.74g %; in assay [2] (30 μM in MS medium) it was 20.0 ± 0.44h %; in assay [4] (5 μM in MS medium), 66.7 ± 0.32b %; in assay [4] (10 μM in MS medium) it was 58.0 ± 0.40c %. The “STN [%] (shoot-tip necrosis)” value in assay [4] (20 μM in MS medium) is 42.0 ± 1.20f %; in assay [4] (30 μM in MS medium) it was 26.6 ± 0.37h %. Also, the “Shoot length [cm]” value amounted to 1.12 ± 0.12bc cm in assay [2] (5 μM in MS medium); 1.54 ± 0.16bc cm in assay [2] (10 μM in MS medium); 1.90 ± 0.14ab cm in assay [2] (20 μM in MS medium); 2.40 ± 0.27a cm in assay [2] (30 μM in MS medium); 1.02 ± 0.15bc cm in assay [4] (5 μM in MS medium); 1.82 ± 0.13b cm in assay [4] (10 μM in MS medium). Also, the figures for the “Shoot length [cm]” value in assay [4] (20 μM in MS medium) and in assay [4] (30 μM in MS medium) were 3.20 ± 0.17a cm and 2.98 ± 0.12a cm, respectively. In addition, the “Shoots [explant^−1] […]” value came to 1.0 ± 0.00c explant^−1 in assay [2] (5 μM in MS medium); 1.6 ± 0.24bc explant^−1 in assay [2] (10 μM in MS medium); 2.0 ± 0.32b explant^−1 in assay [2] (20 μM in MS medium); 2.3 ± 0.37b explant^−1 in assay [2] (30 μM in MS medium); 1.0 ± 0.0a explant^−1 in assay [4] (5 μM in MS medium); 1.0 ± 0.0a explant^−1 in assay [4] (10 μM in MS medium). Also, the “Shoots [explant^−1] […]” value in assay [4] (20 μM in MS medium) and in assay [4] (30 μM in MS medium) was 1.0 ± 0.0a explant^−1 throughout. Moreover, the “Fresh weight (g) mean SE” value in assay [3] (5 μM compound with 10 μM BAP) amounted to 0.178 ± 0.0428 g; in assay [3] (10 μM compound with 10 μM BAP), 0.529 ± 0.1739 g; in assay [3] (20 μM compound with 10 μM BAP), 0.492 ± 0.0593 g; in assay [3] (30 μM compound with 10 μM BAP), 0.584 ± 0.1564 g; in assay [5] (5 μM compound with 10 μM BAP), 0.8764 ± 0.1818 g; in assay [5] (10 μM compound with 10 μM BAP), 0.6712 ± 0.1149 g. Besides, the “Fresh weight (g) mean SE” value in assay [5] (20 μM compound with 10 μM BAP) is 0.8935 ± 0.231 g; in assay [5] (30 μM compound with 10 μM BAP) it was 0.6877 ± 0.1009 g. Moreover, the “Shoot length (mm) mean SE” value in assay [3] (5 μM compound with 10 μM BAP) was 14.33 ± 2.754 mm; in assay [3] (10 μM compound with 10 μM BAP), 14.67 ± 1.291 mm; in assay [3] (20 μM compound with 10 μM BAP), 19.33 ± 2.571 mm; in assay [3] (30 μM compound with 10 μM BAP), 16.44 ± 2.369 mm; in assay [5] (5 μM compound with 10 μM BAP), 19.8 ± 3.2721 mm; in assay [5] (10 μM compound with 10 μM BAP) it was 23.9 ± 3.195 mm. Moreover, the “Shoot length (mm) mean SE” value in assay [5] (20 μM compound with 10 μM BAP) came to 34.9 ± 5.608 mm; in assay [5] (30 μM compound with 10 μM BAP), 23.7 ± 2.937 mm. Besides, the “Shoot no. mean SE” value is on record as 7.2 ± 1.41 in assay [3] (5 μM compound with 10 μM BAP); 13.2 ± 3.44 in assay [3] (10 μM compound with 10 μM BAP); 15.4 ± 1.62 in assay [3] (20 μM compound with 10 μM BAP); 14.9 ± 2.40 in assay [3] (30 μM compound with 10 μM BAP); 1.7 ± 0.335 in assay [5] (5 μM compound with 10 μM BAP); 2.5 ± 0.477 in assay [5] (10 μM compound with 10 μM BAP). The “Shoot no. mean SE” value in assay [5] (20 μM compound with 10 μM BAP) amounted to 2.8 ± 0.291; in assay [5] (30 μM compound with 10 μM BAP), 2.4 ± 0.267.
